Test results published in the NIST ThermoML archive (doi:10.1021/je060271a).
Values joined by “and” are separate entries in the source; they are usually repeats but may differ in a detail not shown here. Equal entries are not always repeated. Numbers after ± are expanded uncertainties.

Settings: 343.15 K, Liquid, Vibrating tube method

CCCCCCC(=O)OCC(COC(=O)CCCCCC)(COC(=O)CCCCCC)COC(=O)CCCCCC [pentaerythritol tetraheptanoate]
Settings | mass density
143.4 kPa | 940.7 ± 1.1 kg/m3
144.1 kPa | 940.6 ± 1.1 kg/m3
144.3 kPa | 940.8 ± 1.1 kg/m3
144.8 kPa | 940.7 ± 1.1 kg/m3 and 940.6 ± 1.1 kg/m3
145 kPa | 940.6 ± 1.1 kg/m3 and 940.7 ± 1.1 kg/m3
145.7 kPa | 940.7 ± 1.1 kg/m3
145.9 kPa | 940.6 ± 1.1 kg/m3
146.2 kPa | 940.6 ± 1.1 kg/m3
146.4 kPa | 940.7 ± 1.1 kg/m3
146.9 kPa | 940.6 ± 1.1 kg/m3
147.3 kPa | 940.6 ± 1.1 kg/m3
147.6 kPa | 940.7 ± 1.1 kg/m3
148.1 kPa | 940.8 ± 1.1 kg/m3
148.5 kPa | 940.7 ± 1.1 kg/m3
148.8 kPa | 940.6 ± 1.1 kg/m3
149 kPa | 940.7 ± 1.1 kg/m3
149.2 kPa | 940.7 ± 1.1 kg/m3
149.7 kPa | 940.6 ± 1.1 kg/m3
149.9 kPa | 940.6 ± 1.1 kg/m3
150 kPa | 940.7 ± 1.1 kg/m3
150.2 kPa | 940.7 ± 1.1 kg/m3
150.4 kPa | 940.8 ± 1.1 kg/m3
151.1 kPa | 940.6 ± 1.1 kg/m3
151.3 kPa | 940.7 ± 1.1 kg/m3
151.8 kPa | 940.7 ± 1.1 kg/m3 and 940.6 ± 1.1 kg/m3
151.9 kPa | 940.6 ± 1.1 kg/m3
152.5 kPa | 940.7 ± 1.1 kg/m3
153 kPa | 940.8 ± 1.1 kg/m3
153.2 kPa | 940.8 ± 1.1 kg/m3
153.7 kPa | 940.8 ± 1.1 kg/m3
153.9 kPa | 940.7 ± 1.1 kg/m3
154.2 kPa | 940.7 ± 1.1 kg/m3
154.9 kPa | 940.7 ± 1.1 kg/m3
155.1 kPa | 940.7 ± 1.1 kg/m3
155.6 kPa | 940.7 ± 1.1 kg/m3
155.8 kPa | 940.7 ± 1.1 kg/m3
155.9 kPa | 940.8 ± 1.1 kg/m3
156.3 kPa | 940.7 ± 1.1 kg/m3
156.8 kPa | 940.7 ± 1.1 kg/m3
157 kPa | 940.7 ± 1.1 kg/m3
157.5 kPa | 940.7 ± 1.1 kg/m3
157.9 kPa | 940.7 ± 1.1 kg/m3
158.2 kPa | 940.7 ± 1.1 kg/m3
159.1 kPa | 940.7 ± 1.1 kg/m3
159.2 kPa | 940.8 ± 1.1 kg/m3
159.6 kPa | 940.7 ± 1.1 kg/m3
159.9 kPa | 940.7 ± 1.1 kg/m3
160.6 kPa | 940.7 ± 1.1 kg/m3
161.3 kPa | 940.7 ± 1.1 kg/m3
161.5 kPa | 940.6 ± 1.1 kg/m3
162.2 kPa | 940.6 ± 1.1 kg/m3
162.6 kPa | 940.6 ± 1.1 kg/m3
163.3 kPa | 940.8 ± 1.1 kg/m3
163.4 kPa | 940.7 ± 1.1 kg/m3
163.9 kPa | 940.7 ± 1.1 kg/m3
164.5 kPa | 940.7 ± 1.1 kg/m3
164.8 kPa | 940.7 ± 1.1 kg/m3
165.2 kPa | 940.7 ± 1.1 kg/m3
165.7 kPa | 940.7 ± 1.1 kg/m3
166.2 kPa | 940.8 ± 1.1 kg/m3
166.7 kPa | 940.6 ± 1.1 kg/m3
167.3 kPa | 940.6 ± 1.1 kg/m3
167.9 kPa | 940.6 ± 1.1 kg/m3
168.3 kPa | 940.8 ± 1.1 kg/m3
168.6 kPa | 940.7 ± 1.1 kg/m3
169.2 kPa | 940.7 ± 1.1 kg/m3
169.9 kPa | 940.6 ± 1.1 kg/m3
170.4 kPa | 940.8 ± 1.1 kg/m3
170.9 kPa | 940.6 ± 1.1 kg/m3
171.2 kPa | 940.7 ± 1.1 kg/m3
171.8 kPa | 940.6 ± 1.1 kg/m3
172.3 kPa | 940.6 ± 1.1 kg/m3
172.8 kPa | 940.7 ± 1.1 kg/m3
173 kPa | 940.7 ± 1.1 kg/m3
173.2 kPa | 940.7 ± 1.1 kg/m3
173.7 kPa | 940.7 ± 1.1 kg/m3
174.4 kPa | 940.6 ± 1.1 kg/m3
174.9 kPa | 940.7 ± 1.1 kg/m3
175.2 kPa | 940.6 ± 1.1 kg/m3
175.9 kPa | 940.7 ± 1.1 kg/m3
176.5 kPa | 940.8 ± 1.1 kg/m3
177.1 kPa | 940.7 ± 1.1 kg/m3
178 kPa | 940.7 ± 1.1 kg/m3
178.4 kPa | 940.6 ± 1.1 kg/m3
178.9 kPa | 940.7 ± 1.1 kg/m3
179.6 kPa | 940.7 ± 1.1 kg/m3
180.8 kPa | 940.7 ± 1.1 kg/m3
181.5 kPa | 940.6 ± 1.1 kg/m3
182.2 kPa | 940.7 ± 1.1 kg/m3
182.7 kPa | 940.8 ± 1.1 kg/m3
183.2 kPa | 940.7 ± 1.1 kg/m3
184.1 kPa | 940.6 ± 1.1 kg/m3
184.8 kPa | 940.8 ± 1.1 kg/m3
185.3 kPa | 940.6 ± 1.1 kg/m3
185.8 kPa | 940.8 ± 1.1 kg/m3
186.7 kPa | 940.7 ± 1.1 kg/m3
187.1 kPa | 940.6 ± 1.1 kg/m3
188.1 kPa | 940.7 ± 1.1 kg/m3
188.8 kPa | 940.6 ± 1.1 kg/m3
189.3 kPa | 940.7 ± 1.1 kg/m3
190 kPa | 940.8 ± 1.1 kg/m3
191.1 kPa | 940.6 ± 1.1 kg/m3
191.7 kPa | 940.6 ± 1.1 kg/m3
192.3 kPa | 940.7 ± 1.1 kg/m3
193.1 kPa | 940.6 ± 1.1 kg/m3
193.6 kPa | 940.6 ± 1.1 kg/m3
194.3 kPa | 940.7 ± 1.1 kg/m3
195.4 kPa | 940.8 ± 1.1 kg/m3
196.1 kPa | 940.8 ± 1.1 kg/m3
197.1 kPa | 940.7 ± 1.1 kg/m3
197.7 kPa | 940.8 ± 1.1 kg/m3
198.3 kPa | 940.8 ± 1.1 kg/m3
199.4 kPa | 940.6 ± 1.1 kg/m3
200.6 kPa | 940.7 ± 1.1 kg/m3
201.5 kPa | 940.8 ± 1.1 kg/m3
202.5 kPa | 940.8 ± 1.1 kg/m3
203.4 kPa | 940.7 ± 1.1 kg/m3
204.1 kPa | 940.7 ± 1.1 kg/m3
205.3 kPa | 940.7 ± 1.1 kg/m3
206 kPa | 940.7 ± 1.1 kg/m3
206.9 kPa | 940.9 ± 1.1 kg/m3
207.7 kPa | 940.8 ± 1.1 kg/m3
208.6 kPa | 940.7 ± 1.1 kg/m3
210 kPa | 940.7 ± 1.1 kg/m3
211 kPa | 940.6 ± 1.1 kg/m3
211.7 kPa | 940.7 ± 1.1 kg/m3
212.8 kPa | 940.9 ± 1.1 kg/m3
213.6 kPa | 940.7 ± 1.1 kg/m3
214.8 kPa | 940.7 ± 1.1 kg/m3
215.9 kPa | 940.7 ± 1.1 kg/m3
217.1 kPa | 940.8 ± 1.1 kg/m3
218 kPa | 940.8 ± 1.1 kg/m3
219 kPa | 940.7 ± 1.1 kg/m3
220.2 kPa | 940.8 ± 1.1 kg/m3
222.7 kPa | 940.7 ± 1.1 kg/m3
224.1 kPa | 940.8 ± 1.1 kg/m3
225.1 kPa | 940.7 ± 1.1 kg/m3
226.1 kPa | 940.7 ± 1.1 kg/m3
227 kPa | 940.8 ± 1.1 kg/m3
228.6 kPa | 940.8 ± 1.1 kg/m3
229.8 kPa | 940.8 ± 1.1 kg/m3
231 kPa | 940.7 ± 1.1 kg/m3
232.2 kPa | 940.7 ± 1.1 kg/m3
233.4 kPa | 940.6 ± 1.1 kg/m3
234.5 kPa | 940.7 ± 1.1 kg/m3
236.2 kPa | 940.7 ± 1.1 kg/m3
237.9 kPa | 940.8 ± 1.1 kg/m3
239.3 kPa | 940.7 ± 1.1 kg/m3
241.1 kPa | 940.7 ± 1.1 kg/m3
242 kPa | 940.7 ± 1.1 kg/m3
243.9 kPa | 940.6 ± 1.1 kg/m3
244.9 kPa | 940.7 ± 1.1 kg/m3
246.3 kPa | 940.8 ± 1.1 kg/m3
248 kPa | 940.6 ± 1.1 kg/m3
250 kPa | 940.7 ± 1.1 kg/m3
251 kPa | 940.7 ± 1.1 kg/m3
252.9 kPa | 940.8 ± 1.1 kg/m3
254.6 kPa | 940.7 ± 1.1 kg/m3
255.8 kPa | 940.8 ± 1.1 kg/m3
257.9 kPa | 940.7 ± 1.1 kg/m3
259.5 kPa | 940.8 ± 1.1 kg/m3
260.5 kPa | 940.8 ± 1.1 kg/m3
262.3 kPa | 940.8 ± 1.1 kg/m3
263.7 kPa | 940.7 ± 1.1 kg/m3
265.9 kPa | 940.8 ± 1.1 kg/m3
268 kPa | 940.8 ± 1.1 kg/m3
269.6 kPa | 940.6 ± 1.1 kg/m3
271.8 kPa | 940.8 ± 1.1 kg/m3
273.9 kPa | 940.8 ± 1.1 kg/m3
276.2 kPa | 940.7 ± 1.1 kg/m3
277.7 kPa | 940.7 ± 1.1 kg/m3
279.5 kPa | 940.8 ± 1.1 kg/m3
281.6 kPa | 940.7 ± 1.1 kg/m3
284.2 kPa | 940.8 ± 1.1 kg/m3
287.1 kPa | 940.8 ± 1.1 kg/m3
288.7 kPa | 940.8 ± 1.1 kg/m3
291.3 kPa | 940.8 ± 1.1 kg/m3
293.5 kPa | 940.9 ± 1.1 kg/m3
295.8 kPa | 940.7 ± 1.1 kg/m3
297.9 kPa | 940.8 ± 1.1 kg/m3
302.9 kPa | 940.9 ± 1.1 kg/m3
305.2 kPa | 940.8 ± 1.1 kg/m3
308.3 kPa | 940.8 ± 1.1 kg/m3
310.8 kPa | 940.8 ± 1.1 kg/m3
314.1 kPa | 940.9 ± 1.1 kg/m3
316.5 kPa | 940.9 ± 1.1 kg/m3
319.1 kPa | 940.8 ± 1.1 kg/m3
321.4 kPa | 940.8 ± 1.1 kg/m3
324.7 kPa | 940.8 ± 1.1 kg/m3
327.3 kPa | 940.7 ± 1.1 kg/m3
330.2 kPa | 940.7 ± 1.1 kg/m3
333.5 kPa | 940.9 ± 1.1 kg/m3
336 kPa | 940.7 ± 1.1 kg/m3
340 kPa | 940.7 ± 1.1 kg/m3
343.3 kPa | 940.9 ± 1.1 kg/m3
346.2 kPa | 940.8 ± 1.1 kg/m3
349.4 kPa | 940.8 ± 1.1 kg/m3
353.2 kPa | 941 ± 1.1 kg/m3
356.5 kPa | 940.7 ± 1.1 kg/m3
359.8 kPa | 940.9 ± 1.1 kg/m3
364.3 kPa | 940.9 ± 1.1 kg/m3
367.4 kPa | 940.8 ± 1.1 kg/m3
371.8 kPa | 940.8 ± 1.1 kg/m3
375.3 kPa | 940.8 ± 1.1 kg/m3
378.9 kPa | 940.8 ± 1.1 kg/m3
382.9 kPa | 941 ± 1.1 kg/m3
387.8 kPa | 940.9 ± 1.1 kg/m3
391.6 kPa | 940.9 ± 1.1 kg/m3
395.9 kPa | 940.9 ± 1.1 kg/m3
400.5 kPa | 940.9 ± 1.1 kg/m3
405 kPa | 940.9 ± 1.1 kg/m3
410.2 kPa | 941 ± 1.1 kg/m3
414.7 kPa | 941 ± 1.1 kg/m3
419.2 kPa | 940.9 ± 1.1 kg/m3
423.8 kPa | 940.9 ± 1.1 kg/m3
429.5 kPa | 940.8 ± 1.1 kg/m3
434.5 kPa | 940.9 ± 1.1 kg/m3
440.6 kPa | 940.9 ± 1.1 kg/m3
445.7 kPa | 940.9 ± 1.1 kg/m3
451.2 kPa | 941 ± 1.1 kg/m3
457.5 kPa | 941 ± 1.1 kg/m3
463.2 kPa | 940.9 ± 1.1 kg/m3
468.9 kPa | 940.8 ± 1.1 kg/m3
